Experimental data from the supplement of paper PMC10307832.

Columns and labels:
Experiment in all cases: relative viability (nuclei count vs DMSO), 5 days (fraction); higher = more cells survive
[1] = compound: NC(=O)c1ccc(N(C(N)=O)c2c(F)cccc2F)nc1-c1ccc(F)cc1F [VX-702] + COc1cccc2cc(-c3nc([C@H]4CC[C@H](C(=O)O)CC4)n4ncnc(N)c34)[nH]c12 [OSI-027] (partner 0.5 µM)
In short: (§1)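 The day after seeding in 1536-well plates, lung cancer cell lines were treated by pin tool with a single drug, or with a fixed anchor-drug dose together with five library-drug doses (not always all listed) in √10 steps. After 5 days, a combined fix-and-stain solution (final 0.05% Triton X-100, 1% formaldehyde, 1 ug/ml Hoechst) was added. Nuclei counted on 4× images gave relative viability as treated counts over vehicle counts, reported as the median of duplicate plates.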

[2] = compound: NC(=O)c1ccc(N(C(N)=O)c2c(F)cccc2F)nc1-c1ccc(F)cc1F [VX-702] + C[C@]1(O)C[C@@H](c2nc(-c3ccc4ccc(-c5ccccc5)nc4c3)c3c(N)nccn32)C1 [Linsitinib] (partner 1 µM)
In short: as §1

[3] = compound: NC(=O)c1ccc(N(C(N)=O)c2c(F)cccc2F)nc1-c1ccc(F)cc1F [VX-702] + Cc1nc(NC(=O)N2CCC[C@H]2C(N)=O)sc1-c1ccnc(C(C)(C)C(F)(F)F)c1 [Alpelisib] (partner 2 µM)
In short: as §1

[4] = compound: NC(=O)c1ccc(N(C(N)=O)c2c(F)cccc2F)nc1-c1ccc(F)cc1F [VX-702] + O=C(CCCCCCC(=O)Nc1ccccc1)NO [Vorinostat] (partner 1 µM)
In short: as §1

Cell Line	relative viability ([1]; first compound 0.02 µM)	relative viability ([1]; first compound 0.2 µM)	relative viability ([1]; first compound 0.6325 µM)	relative viability ([1]; first compound 2 µM)	relative viability ([2]; first compound 0.02 µM)	relative viability ([2]; first compound 0.2 µM)	relative viability ([2]; first compound 0.6325 µM)	relative viability ([2]; first compound 2 µM)	relative viability ([3]; first compound 0.02 µM)	relative viability ([3]; first compound 0.2 µM)	relative viability ([3]; first compound 0.6325 µM)	relative viability ([3]; first compound 2 µM)	relative viability ([4]; first compound 0.02 µM)	relative viability ([4]; first compound 0.2 µM)	relative viability ([4]; first compound 0.6325 µM)	relative viability ([4]; first compound 2 µM)
201T	0.732	0.499	0.69	0.735	0.958	1.03	0.986	0.987	0.997	1.04	1.03	1.02	0.966	0.956	1.09	1
A549					0.502	0.579	0.57	0.563	0.727	0.666	0.692	0.857				
A-427	0.4	0.447	0.427	0.352	1.1	1.05	1.17	1.17	0.997	0.99	1.1	1.17	0.897	0.869	0.895	1.01
ABC-1	0.47	0.578	0.509	0.615	0.661		0.925	1.16	0.948		0.901	1	1.46	0.922	1.17	1.41
BEN	0.31	0.298	0.315	0.328	0.828	0.798	0.967	0.852	0.823	0.912	0.919	1.18	0.63	0.559	0.643	0.559
CAL-12T	0.624	0.715	0.661	0.506	0.815	0.898	0.722	0.881	1.22	1.27	1.16	1.24	0.688	0.744	0.725	1.04
COR-L23	0.989	0.75	0.766	0.961	1.09	1.06	0.959	1.26	0.947	0.831	0.841	0.986	0.511	0.47	0.46	0.491
COR-L 105	0.661	0.679	0.688	0.517	0.965	0.916	0.956	1.4	1.08	0.947	0.868	1.24	0.734	0.805	0.795	0.855
Calu-6						0.967	1.09	1.02	0.942	1.07	1	1.2				
ChaGo-K-1	0.641	0.624	0.567	0.566									0.84	0.7	0.79	0.795
EBC-1					1.07	0.935	0.914	0.993	0.777	0.835	0.687	0.892				
EKVX	0.811	0.607	0.675	0.668	0.946	1.01	1.01	0.988	0.814	0.801	0.73	0.855	0.823	0.671	0.676	0.696
EMC-BAC-2	0.372	0.404	0.355	0.313	0.83	0.796	0.816	0.892	0.766	0.671	0.723	0.852	0.477	0.427	0.496	0.427
EPLC-272H	0.298	0.304	0.279	0.248	1	1.1	1.13	1.28	0.982	0.752	0.965	1.01	0.401	0.571	0.535	0.438
H3255	0.666	0.684	0.541	0.63	0.941	0.856	0.866	0.929	0.727	0.78	0.723	0.907	0.757		0.598	0.866
HARA	0.458	0.412	0.446	0.479	1.02	0.877	0.927	0.797	0.789	0.832	0.836	0.921	0.527	0.51	0.542	0.449
HCC-15	0.659	0.661	0.69	0.702	0.825	0.766	0.843	0.952	0.844	0.777	0.848	0.956	0.813	0.803	0.854	0.858
HCC-44	0.48	0.433	0.491	0.485	0.618	0.671	0.617	0.65	0.861	0.866	0.588	0.8	1.17	1.09	1.19	1.16
HCC-78	0.364	0.358	0.311	0.32	0.448	0.508	0.427	0.492	0.303	0.33	0.287	0.32	0.393	0.486	0.427	0.543
HCC-366	1.09	0.899	0.932	0.107	0.592	0.375	0.615	0.47	0.37	0.369	0.296	0.463	0.402	0.38	0.427	0.133

Cell Line	relative viability ([1]; first compound 0.02 µM)	relative viability ([1]; first compound 0.2 µM)	relative viability ([1]; first compound 0.6325 µM)	relative viability ([1]; first compound 2 µM)	relative viability ([2]; first compound 0.02 µM)	relative viability ([2]; first compound 0.2 µM)	relative viability ([2]; first compound 0.6325 µM)	relative viability ([2]; first compound 2 µM)	relative viability ([3]; first compound 0.02 µM)	relative viability ([3]; first compound 0.2 µM)	relative viability ([3]; first compound 0.6325 µM)	relative viability ([3]; first compound 2 µM)	relative viability ([4]; first compound 0.02 µM)	relative viability ([4]; first compound 0.2 µM)	relative viability ([4]; first compound 0.6325 µM)	relative viability ([4]; first compound 2 µM)
HCC-827	0.828	0.839	0.688	0.273	0.931	0.927	0.953	0.71	0.982	1.04	0.884	0.684	0.879	0.799	0.885	0.827
HOP-62	0.88	0.859	0.831	0.982	0.918	0.851	1.04	1.05	1.12	1.17	1.06	1.19	0.869	0.697	0.744	0.817
IA-LM					0.585	0.723	0.606	0.557	0.718	0.725	0.782	0.748	0.937	0.936	0.853	0.878
LC-2-ad	0.844	0.814	0.999	0.949	0.778	0.799	0.922	0.885	0.943	0.885	0.868	1.02	0.693	0.678	0.773	0.803
LCLC-97TM1	0.424	0.595	0.37	0.404	0.131	0.189	0.172	0.207	0.187	0.238	0.205	0.227	0.732	0.787	0.782	0.878
LCLC-103H	0.49	0.485	0.417	0.458	1.23	0.954	1.12	1	0.964	0.949	0.977	0.9	0.813	0.799	0.835	0.839
LK-2	0.21	0.211	0.167	0.183	0.711	0.436		0.542	0.611		0.635	1.18	0.258	0.275	0.283	0.385
LOU-NH91	0.767	0.734	0.751	0.528	1.01	0.926	0.933	0.687	0.699	0.683	0.702	0.562	0.957	0.845	0.895	0.857
LU99A	0.339	0.323	0.312	0.283	0.511	0.517	0.466	0.515	0.52	0.485	0.48	0.467	0.412	0.452	0.49	0.485
LXF-289	0.786	0.784	0.772	0.683	0.941	0.961	0.931	0.96	1.07	1.03	1.01	1.05	0.816	0.765	0.811	0.786
NCI-H522	0.649	0.718	0.681	0.747									1.06	0.899	1.03	1.11
NCI-H1299					1.17	0.999	1.06	1.09	1.14	1.1	1.21	1.15				
NCI-H1563	0.77	0.748	0.738	0.722	1.23	1.15	1.18	1.14	0.905	0.997	0.835	0.876				
NCI-H1623	0.403	0.406	0.424	0.43												
NCI-H1648	0.278	0.275	0.251	0.253									0.242	0.271	0.397	0.364
NCI-H1650	0.635	0.652	0.806	0.541									0.479	0.624	0.776	0.583
NCI-H1703					0.531	0.717	0.937	1.26	0.304	0.376	0.215	0.334				
NCI-H1792	0.667	0.669	0.682	0.683	0.404	0.484	0.458	0.5	0.668	0.66	0.637	0.479				
NCI-H2170	0.746	0.693	0.698	0.762					0.801	0.61	0.757	0.869	0.967	0.734	0.842	0.874
NCI-H2342	0.632	0.651	0.644	0.692									0.717	0.956	0.832	0.867
